By LOAEL is commonly meant the lowest dose or exposure tested at which an adverse effect was seen. By NOAEL is commonly meant the highest dose or exposure tested at which no adverse effect was seen. One may read the LD50 as the dose at which mortality reaches 50%. Higher therefore signals a less toxic substance.

The source of these data is EPA's ToxValDB 9.5.

Data set [1] has as its system Rattus norvegicus. The note with it: oral.
The test system of data set [2] is Rattus norvegicus.
For data set [3], the system named is Rattus norvegicus. Particulars: oral, gavage; for LD50: acute.
The mark [4] stands for this setting: acute, duration: 4 hours, inhalation, M, Bone Marrow: Bone Marrow Histopathology + Spleen: Spleen Histopathology + Whole Body: Clinical Signs.
The mark [5] stands for this setting: reproduction developmental, duration: 9 days, inhalation, F, generation: P0, P0: Whole Body: Maternal Body Weight, Initial.
[6] abbreviates: reproduction developmental, duration: 9 days, inhalation, M/F, generation: F1, F1: Vertebra: Thoracic Centrum, Dipartite Ossification.
[7] abbreviates: reproduction developmental, duration: 14 days, oral, gavage, F, Crj:CD, generation: P0, P0: Uterus: >=6 Days of Diestrus + P0: Uterus: Estrous Cycle, Length + P0: Whole Body: Delivery Index + P0: Whole Body: Length of Gestation….
The mark [8] stands for this setting: reproduction developmental, duration: 14 days, oral, gavage, M/F, Crj:CD, generation: F1, F1: Whole Body: Live Birth Index + F1: Whole Body: Live Pups Born + F1: Whole Body: Survival + F1: Whole Body: Viability Index.
Where [9] appears, read: reproduction developmental, duration: 42 days, oral, gavage, M, Crj:CD, generation: P0, P0: Whole Body: Percent Mating.
The mark [10] stands for this setting: short-term, duration: 14 days, oral, gavage, F, Crj:CD, Liver: Cholesterol (CHOL), Total.
Where [11] appears, read: subchronic, duration: 42 days, oral, gavage, M, Crj:CD, Adrenal: Adrenal Gland Weight, Absolute + Liver: Aspartate Aminotransferase (AST) + Spleen: Spleen Weight, Relative.

Values joined by “and” are separate entries in the source; they are usually repeats but may differ in a detail not shown here. Identical values can stand only once.

Turning to `OC(C(F)(F)F)C(F)(F)F` [2H-Perfluoro-2-propanol], the NOEL in data set [1] (subchronic, gavage, M, Sprague-Dawley, Clinical Observation: Prone position Lateral position Locomotor activity decrease + Functional Observational Battery: Prone position Lateral…) worked out at 10 mg/kg-day. Also, the lowest observed adverse effect level (LOAEL) in data set [2] (setting [4]) was 5500 mg/m3; in data set [2] (acute, duration: 4 hours, inhalation, M, Brain: Brain Histopathology + Brain: Brain Pathology + Duodenum: Duodenum Histopathology + Heart: Heart Histopathology + Kidney: Kidney …), 1370 mg/m3 and 1380 mg/m3; in data set [2] (setting [5]), 1380 mg/m3 and 1370 mg/m3; in data set [2] (reproduction developmental, duration: 9 days, inhalation, M/F, generation: F1, F1: Kidney: Hydronephrosis + F1: Rib: 14th Rudimentary Rib), 207 mg/m3 and 206 mg/m3; in data set [2] (setting [6]) it was 1380 mg/m3 and 1370 mg/m3; in data set [2] (reproduction developmental, duration: 14 days, oral, gavage, F, Crj:CD, generation: F1, F1: Whole Body: Pup Weight Relative to Litter), 300 mg/kg-day. Further, the LOAEL in data set [2] (setting [7]) worked out at 300 mg/kg-day; in data set [2] (setting [8]), 300 mg/kg-day; in data set [2] (reproduction developmental, duration: 14 days, oral, gavage, M, Crj:CD, generation: F1, F1: Whole Body: Pup Weight Relative to Litter), 300 mg/kg-day; in data set [2] (setting [9]) it was 300 mg/kg-day; in data set [2] (short-term, duration: 14 days, oral, gavage, F, Crj:CD, Calcium (CA) + Central Nervous System: CNS Depression + Liver: Hepatocellular Hypertrophy + Liver: Liver Weight, Relative, Recovery + …), 300 mg/kg-day; in data set [2] (setting [10]), 60 mg/kg-day. Moreover, the LOAEL in data set [2] (setting [11]) is 60 mg/kg-day; in data set [2] (subchronic, duration: 42 days, oral, gavage, M, Crj:CD, Adrenal: Adrenal Gland Weight, Relative), 10 mg/kg-day; in data set [2] (subchronic, duration: 42 days, oral, gavage, M, Crj:CD, Blood: Platelet Count (PLT) + Blood: Reticulocytes + Brain: Brain Weight, Absolute + Brain: Brain Weight, Absolute, Recovery + Central …), 300 mg/kg-day. The NOAEL was 1370 mg/m3 and 1380 mg/m3 in data set [2] (setting [4]); 1380 mg/m3 and 1370 mg/m3 in data set [2] (developmental, duration: 9 days, inhalation, M/F, generation: F1, F1: Rib: Rib, Wavy + F1: Skin: Petechial Hemorrhages + F1: Skin: Subcutaneous Hematoma, Small + F1: Skull: Hyoid Body, Unossified + F1: …); 1380 mg/m3 and 1370 mg/m3 in data set [2] (reproduction developmental, duration: 9 days, inhalation, F, generation: P0, P0: Ovary: Corpora Lutea + P0: Uterus: Mean Implantations/Litter + P0: Uterus: Resorptions, Early + P0: Uterus: Resorptions, Late + P0: …); 207 mg/m3 and 206 mg/m3 in data set [2] (setting [5]); 207 mg/m3 and 206 mg/m3 in data set [2] (setting [6]); 300 mg/kg-day in data set [2] (reproduction developmental, duration: 14 days, oral, gavage, F, Crj:CD, generation: P0, P0: Ovary: Corpora Lutea + P0: Uterus: Estrous Cycle, Irregular + P0: Uterus: Estrous Stages/ 21 Days + P0: Uterus: Implantation + P0: …). In addition, the no-observed-adverse-effect level (NOAEL) in data set [2] (setting [7]) stood at 60 mg/kg-day; in data set [2] (setting [8]), 60 mg/kg-day; in data set [2] (reproduction developmental, duration: 14 days, oral, gavage, M/F, Crj:CD, generation: F1, F1: Whole Body: Male Pups per Pups Sexed + F1: Whole Body: Male Pups per Pups Sexed, Live Offspring), 300 mg/kg-day; in data set [2] (reproduction developmental, duration: 42 days, oral, gavage, M, Crj:CD, generation: P0, P0: Whole Body: Days of Cohabitation + P0: Whole Body: Fertility Index), 300 mg/kg-day; in data set [2] (setting [9]) it was 60 mg/kg-day; in data set [2] (short-term, duration: 14 days, oral, gavage, F, Crj:CD, Adrenal: Adrenal Gland Histopathology + Adrenal: Adrenal Gland Weight, Absolute + Adrenal: Adrenal Gland Weight, Relative + Basophils + …) it was 300 mg/kg-day. The no observed adverse effect level (NOAEL) in data set [2] (short-term, duration: 14 days, oral, gavage, F, Crj:CD, Calcium (CA) + Central Nervous System: CNS Depression + Liver: Hepatocellular Hypertrophy + Peripheral Nervous System: Aerial Righting …) is 60 mg/kg-day; in data set [2] (setting [10]), 10 mg/kg-day; in data set [2] (subchronic, duration: 42 days, oral, gavage, M, Crj:CD, Adrenal: Adrenal Gland Histopathology + Adrenal: Adrenal Gland Weight, Absolute, Recovery + Adrenal: Adrenal Gland Weight, Relative, …) it was 300 mg/kg-day; in data set [2] (setting [11]) it was 10 mg/kg-day; in data set [2] (subchronic, duration: 42 days, oral, gavage, M, Crj:CD, Blood: Platelet Count (PLT) + Blood: Reticulocytes + Brain: Brain Weight, Absolute + Central Nervous System: CNS Depression + Kidney: Urea …), 60 mg/kg-day.

`Cc1ccc(Cl)cc1` [4-Chlorotoluene]: in data set [3] (Sprague-Dawley), the LD50 was 2350 mg/kg and 1900 mg/kg. For the same compound, the no-observed-adverse-effect level (NOAEL) in data set [1] (short-term, duration: 29 days, gavage, M/F, Wistar, Deaths + Clinical Observation: Rough fur Reduced condition Difficulties in breathing Distended abdomen Salivation + Body Weight Changes: …) was determined as 200 mg/kg-day; in data set [1] (subchronic, duration: 90 days, gavage, M/F, Sprague-Dawley, Deaths + Clinical Observation: Languid behavior Prostration Sensitivity to touch Tremor Epistaxis Wheezing Dyspnea + Body Weight Changes: …), 200 mg/kg-day.

In the case of `Cc1cc(S(=O)(=O)[O-])c(N=Nc2c([O-])c(C(=O)O)cc3ccccc23)cc1Cl.[Ca+2]` [C.I. Pigment Red 48, calcium salt (1:1)], the median lethal dose (LD50) in data set [3] was not below 5000 mg/kg. Further, in data set [1] (subchronic, gavage, M, Sprague-Dawley, Functional Observational Battery: Grip strength of hind limbs + Relative Organ Weight: Kidneys increase + Histopathology: Kidneys/ proximal …), the NOEL is 200 mg/kg-day.

Regarding `O=C1N(CO)C(O)C(O)N1CO` (stereo unspecified) [Dimethyloldihydroxyethyleneurea], the NOAEL in data set [3] (developmental, duration: 10 days, Wistar) worked out at 640 mg/kg-day; in data set [3] (reproduction developmental, duration: 14 days, Fischer 344), 4000 mg/kg-day; in data set [1] (subchronic, duration: 90 days, gavage, M/F, Fischer 344, Clinical Observation: Yellow discoloration, abdominal/anogenital region Soft stool Hypoactivity Grasping reflex decrease, Hypothermic …) it was 3000 mg/kg-day.

For the compound `Cn1c(=O)c2[nH]cnc2n(C)c1=O` [Theophylline], the NOEL in data set [1] (chronic, duration: 14 weeks, diet, F, Fischer 344, Absolute Organ Weight: Right kidney increase, Lung increase + Relative Organ Weight: Right kidney increase, Lungs increase + Histopathology…) was less than 75 mg/kg-day; in data set [1] (chronic, duration: 14 weeks, diet, M/F, Fischer 344, Absolute Organ Weight: Right kidney increase, Lung increase + Relative Organ Weight: Right kidney increase, Lungs increase + Histopathology…) it was less than 78 mg/kg-day; in data set [1] (chronic, duration: 14 weeks, gavage, M/F, Fischer 344, Deaths + Absolute Organ Weight: Liver increase, Thymus decrease + Relative Organ Weight: Right kidney increase, Liver increase, Uterus …) it was less than 37.5 mg/kg-day.

As for `C=CCN(CC=C)CC=C` [Triallylamine], the NOEL in data set [1] (short-term, duration: 28 days, gavage, M/F, Sprague-Dawley, Clinical Observation: Locomotor activity decrease, Salivation + Functional Observational Battery: Hind limb grip strength decrease + Body …) worked out at 6 mg/kg-day.

Take `Nc1nc(N)c2nc(-c3ccccc3)c(N)nc2n1` [Triamterene]: the NOEL in data set [1] (subchronic, duration: 13 weeks, diet, M/F, Fischer 344, Deaths + Body Weight Changes: decrease + Food Consumption: decrease + Histopathology: Kidney-Tubule degeneration Kidney-Cast Kidney-Tubule …) was determined as 14.4 mg/kg-day.

For `OCCOCCOCCO` [Triethylene glycol], the NOEL in data set [1] (subchronic, duration: 13 weeks, diet, M/F, Fischer 344, Body Weight Changes: Mean body weight decrease, Body weight gain decrease + Urinalysis: Urinalysis', 'Volume increase, pH decrease + …) came out at 1920 mg/kg-day.

As to `CO[Si](C)(OC)OC` [Trimethoxymethylsilane], the NOAEL in data set [1] (short-term, duration: 28 days, gavage, M, Sprague-Dawley, Clinical Observation: Inactivity Salivation + Body Weight Changes: Body weight gain decrease + Food Consumption: decrease + Hematology: PT …) turned out to be 50 mg/kg-day.

On to `CC(C)(C)OOC(=O)c1ccccc1` [tert-Butyl perbenzoate], for which, in data set [1] (subchronic, gavage, M/F, Fischer 344, Deaths + Body Weight Changes: decrease + Food Consumption: decrease + Absolute Organ Weight: Spleen decrease, Forestomach increase>60 …), the NOEL was less than 30 mg/kg-day.

As for `CC(C)(C)c1cc(O)ccc1O` [tert-Butylhydroquinone], the NOEL was 200 mg/kg-day in data set [1] (subchronic, duration: 13 weeks, diet, F, Fischer 344, Clinical Observation: Hair discoloration + Body Weight Changes: decrease + Food Consumption: decrease + Blood Chemistry: Bile acid increase…) and less than 240 mg/kg-day in data set [1] (subchronic, duration: 13 weeks, diet, M/F, Fischer 344, Clinical Observation: Hair discoloration + Body Weight Changes: decrease + Food Consumption: decrease + Blood Chemistry: Bile acid increase…).
